As usually defined, the IC50 is the concentration needed to halve the response being measured.

One test concerns the target human CDK2:CycA (Homo sapiens, UniProt P24941). Put plainly: Mammalian protein kinase assay / counter screen, CDK2:CYCA. As to conditions: for IC50: BioFocus SFK48 HTS hits, re-screen; for activity towards CDK2:CycA in the primary screen: BioFocus SFK48 library, counter screen. The class given is biochemical. As to the method:
(§1) Leishmania CRK3:CYC6 protein kinase assays were performed in 96-well microtiter plates in a final volume of 25 µl. Each assay point contained 7.5 ng of co-expressed histidine-tagged CRK3:CYC6 protein kinase complex (hereafter referred to as CRK3:CYC6) diluted in enzyme dilution buffer (EDB) (20 mM Tris-HCl pH 7.2, 0.5 mg ml^−1 BSA, 2.5% glycerol and 0.006% Brij-35). Assays were performed using the assay development buffer (ADB) (20 mM MOPS, pH 7.0, 25 mM β-glycerophosphate, 5 mM EGTA, 1 mM NaVO3, 1 mM DTT and 15 mM MgCl2) supplemented with 100 µM ATP, 0.5 µCi of γ-^32P ATP per reaction and histone H1 as a substrate used at 0.4 mg ml^−1. Two and three-fold titrations were set up to determine the concentration of enzyme to be used per assay point (7.5 ng) and to determine the concentrations of selected inhibitors required for 50% inhibition of Leishmania CRK3:CYC6 protein kinase activity (IC50 values), respectively. For IC50 determinations, assay mixes contained DMSO to a final concentration of 2%. Mammalian protein kinase assays were carried out according to the assay protocols developed at Cyclacel. Assays were carried out for 30 minutes at 30°C before stopping the reaction by the addition of an equal volume (25 µl) of 75 mM orthophosphoric acid. Samples were spotted onto a p81 cellulose filterplate (Nunc) and a vacuum applied. Wells were washed 3×200 µl with 75 mM phosphoric acid and the bottom of the plate sealed. 50 µl of Microscint 40 (Perkin Elmer) was added per well before incorporation of radioactivity was determined on a Topcount microplate scintillation counter.
Background: Counterscreens check selectivity or assay interference.

Another test relates to WT promastigote L. major. Nature of the test: L. major promastigote growth inhibition assay (resazurin). The conditions noted are these: BioFocus SFK48 HTS hits; 5 days at 25°C; read-out: IC50 against WT promastigote L. major. It counts as cell-based. As to the method: L. major wild type promastigotes (Friedlin strain: WHO designation MHOM/JL/81/Friedlin) were grown at 25°C in HOMEM medium (Invitrogen cat no. 041-94699111) supplemented with 10% (v/v) heat inactivated foetal calf serum (HIFCS) and 1% (v/v) penicillin/streptomycin antibiotics.
CRK3 inhibitors were diluted into HOMEM medium supplemented with 10% HIFCS at twice the final screening concentration. Five-fold or ten-fold serial dilutions were carried out into HOMEM medium supplemented with 10% HIFCS. 100 µl of each drug concentration were added to a 96 well plate in duplicate. 100 µl of five-fold or ten-fold serial dilutions of 1 mM Pentamidine (Sigma) and an equivalent volume of 100% DMSO were included as positive and negative controls, in duplicate, respectively. L. major promastigote cells were diluted to a cell density of 2×10^6 cells ml^−1 in HOMEM media supplemented with 10% HIFCS and 100 µl added to all wells in 96 well plates. Plates were sealed with parafilm and incubated for 5 days at 25°C. After 5 days, 20 µl of filter sterile resazurin solution (12.5 mg resazurin salt in 100 ml PBS) (Sigma) was added to each of the wells and the plate incubated for a further 24 hours at 25°C. Fluorescence was measured using an Envision plate reader (Perkin Elmer) at 540 nm excitation wavelength and 590 nm emission wavelength.
In general terms: The colour change of resazurin is a common sign of viable cells or microbes.

Test [1] has as its target T1, Leishmania CRK3:CYC6 (Leishmania major, UniProt O96526). The class given is biochemical. The conditions noted are these: BioFocus SFK48 HTS hits, rescreen. As to the method:
as §1
Target sequence in this assay (Q4Q4U0 entry or part of it): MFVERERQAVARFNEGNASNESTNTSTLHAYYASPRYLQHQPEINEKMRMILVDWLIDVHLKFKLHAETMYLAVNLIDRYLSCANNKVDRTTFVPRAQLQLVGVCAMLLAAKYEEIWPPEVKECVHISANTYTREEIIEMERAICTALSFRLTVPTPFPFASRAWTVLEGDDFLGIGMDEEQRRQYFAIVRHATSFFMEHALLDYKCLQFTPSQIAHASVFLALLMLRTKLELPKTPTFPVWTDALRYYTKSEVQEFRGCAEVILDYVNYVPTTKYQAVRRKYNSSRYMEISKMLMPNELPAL
Target sequence in this assay (O96526 entry or part of it): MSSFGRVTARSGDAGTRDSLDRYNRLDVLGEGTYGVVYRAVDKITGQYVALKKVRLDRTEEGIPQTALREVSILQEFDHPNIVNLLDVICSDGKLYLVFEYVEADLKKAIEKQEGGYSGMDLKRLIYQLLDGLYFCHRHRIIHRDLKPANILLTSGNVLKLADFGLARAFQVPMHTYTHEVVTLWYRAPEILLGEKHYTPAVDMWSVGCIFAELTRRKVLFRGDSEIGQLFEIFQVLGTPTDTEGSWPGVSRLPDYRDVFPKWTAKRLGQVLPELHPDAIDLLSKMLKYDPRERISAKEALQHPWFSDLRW

In test [2] the target is T1, Leishmania CRK3:CYC6. Put plainly: IMAP fluorescence polarisation high throughput screen of CRK3:CYC6. The class given is biochemical, L. major. Set-up: made in house; host or cells: E. coli BL21 (DE3) pLys-S. As to conditions: BioFocus SFK48 library, primary concentration 20 µM. As to the method: (§2) Protein kinase assays were performed in 384-well non-treated black plates (Nunc) in a final volume of 20 µl. Each assay point contained 1.25 ng of co-expressed Leishmania CRK3:CYC6 protein kinase complex. […] The enzyme complex, peptide and ATP were made up in the IMAP complete reaction buffer (CRB) (10 mM Tris-HCl, pH 7.2, 10 mM MgCl2, 0.05% NaN3, 0.01% Tween-20 and 1 mM DTT). Assays were carried out for 1 hour 20 minutes at room temperature and the reaction stopped by the addition of 50 µl of the IMAP progressive binding reagent (Proprietary buffer from Molecular Devices plus tri-valent metal-containing nanoparticles). The assay was left to proceed for a further 1 hour 20 minutes at room temperature and the fluorescence polarization determined by a Perkin Elmer Fusion microplate reader, with excitation at 485 nm and emission at 535 nm.
Target sequence in this assay (O96526 entry or part of it): as above
A general note: In fluorescence polarisation assays a small probe gives low polarisation when free and higher when bound to something large.

The subject of a further test is CRK3:CYC6. The conditions noted are these: peptide as substrate of CRK3:CYC6. As to the method:
as §2
The IMAP fluorescent polarisation assay was selected for the high throughput screen. First a substrate finder assay was carried out with 61 potential serine/threonine protein kinase substrates. […] In order to establish the quantity of CRK3:CYC6 to use in the IMAP HTS assays, a two-fold enzyme titration was carried out (Figure S2 in Supporting Information Text S1).

CRK3:CYC6, sequence (O96526 entry or part of it): as above

Turning to `NC(c1ccccc1)c1csc(NC(=O)Nc2ccccc2Cl)n1` (centres unmarked) [Compound 37], the values for the IC50 against human CDK2:CycA, with WT promastigote L. major and against Leishmania CRK3:CYC6 [1] were more than 20 µM, 27.5 µM and 4.8 µM, respectively.

`CN(C)Cc1csc(NC(=O)Nc2ccccc2Oc2ccccc2)n1` [Compound 44]: the “activity towards CRK3:CYC6 in the primary screen” value (“activity towards CRK3:CYC6” below) at Leishmania CRK3:CYC6 [2] was “active”. In addition, the “activity towards CDK2:CycA in the primary screen” value (shortened to “activity towards CDK2:CycA”) on human CDK2:CycA is “active”. In addition, the IC50 in the test with WT promastigote L. major was determined as 14.4 µM.

In the case of `NC(c1ccccc1)c1csc(NC(=O)Nc2ccc(OC(F)(F)F)cc2)n1` (centres unmarked) [Compound 42], the IC50 at human CDK2:CycA was more than 20 µM; in the test with WT promastigote L. major, 6.9 µM; against Leishmania CRK3:CYC6 [1] it was 10 µM.

In the case of FLAKSFGSPNRAYKK [CDK7 derived], the ΔmP signal in the test on CRK3:CYC6 came out at 180 mP.

For the compound `COc1ccc(C(N)c2csc(NC(=O)Nc3ccc(C(C)C)cc3)n2)cc1` (centres unmarked) [Compound 39], the IC50 is more than 20 µM against human CDK2:CycA, 3.8 µM in the test with WT promastigote L. major and 7.5 µM on Leishmania CRK3:CYC6 [1].

Take `CC(C)c1ccccc1NC(=O)Nc1nc(C2CCC(=O)N2)cs1` (centres unmarked) [Compound 40]: the IC50 against human CDK2:CycA is more than 20 µM; in the test on WT promastigote L. major, more than 50 µM; at Leishmania CRK3:CYC6 [1], 7.8 µM.

As for `COc1ccc(CC(N)c2csc(NC(=O)Nc3cc(OC)ccc3OC)n2)cc1` (centres unmarked) [Compound 45], the “activity towards CRK3:CYC6” value at Leishmania CRK3:CYC6 [2] was “inactive”. Besides, on human CDK2:CycA, the “activity towards CDK2:CycA” value was “inactive”. The IC50 in the test with WT promastigote L. major amounted to 6.8 µM.

As to RRRFRPASPLRGPPK [DYRKtide], the ΔmP signal with CRK3:CYC6 is reported as 190 mP.

In turn, GGGPATPKKAKKL [Histone H1 derived] displayed a ΔmP signal in the test with CRK3:CYC6 of 295 mP.

Turning to `COc1ccc(CC(N)c2csc(NC(=O)Nc3ccccc3Oc3ccccc3)n2)cc1` (centres unmarked) [Compound 38], the IC50 at human CDK2:CycA is more than 20 µM; in the test on WT promastigote L. major it was 3.3 µM; against Leishmania CRK3:CYC6 [1], 5 µM.

In the case of `Cc1ccccc1NC(=O)Nc1nc(C(N)c2ccccc2Cl)cs1` (centres unmarked) [Compound 41], the IC50 was more than 20 µM against human CDK2:CycA, 26.1 µM with WT promastigote L. major and 9 µM on Leishmania CRK3:CYC6 [1].

With `NC(c1csc(NC(=O)Nc2cccc(Cl)c2)n1)c1ccccc1Cl` (centres unmarked) [Compound 43], on Leishmania CRK3:CYC6 [2], the “activity towards CRK3:CYC6” value is reported as “active”. In addition, the “activity towards CDK2:CycA” value on human CDK2:CycA is reported as “active”. For the same compound, the IC50 in the test on WT promastigote L. major came to 12.5 µM.

With “PKTPKKAKKL [Histone H1 derived (aa 9–18)]”, the ΔmP signal with CRK3:CYC6 came out at 280 mP.

Take `COc1ccc(CNC(=O)Nc2nc(C(N)CCc3ccccc3)cs2)cc1` (centres unmarked) [Compound 46]: the “activity towards CRK3:CYC6” value at Leishmania CRK3:CYC6 [2] is “inactive”. Further, on human CDK2:CycA, the “activity towards CDK2:CycA” value was “inactive”. Also, in the test with WT promastigote L. major, the IC50 came to 7.8 µM.

Turning to `NC(c1ccccc1)c1csc(NC(=O)Nc2ccccc2)n1` (centres unmarked) [Compound 36], the concentration for half-maximal inhibition (IC50) was more than 20 µM against human CDK2:CycA, 26.8 µM with WT promastigote L. major and 3.5 µM at Leishmania CRK3:CYC6 [1].

The compound GGGRSPGRRRRK [Generic Sequence] gave a ΔmP signal with CRK3:CYC6 of 310 mP.

The values above are taken from publication PMC3071374, “High Throughput Screens Yield Small Molecule Inhibitors of Leishmania CRK3:CYC6 Cyclin-Dependent Kinase” (PLoS Neglected Tropical Diseases, 2011).
